From patent US20220323406A1, “METHODS AND COMPOSITIONS FOR DIFFERENTIATING STEM CELLS” (Massachusetts Institute of Technology, priority 2019, published 2022)

How the values were obtained:
[1] = system: ENR+CD organoids (ISC to Paneth cell differentiation); experiment: Primary screen: basal (non-stimulated) lysozyme secretion LYZ.NS, 2.5-D 384-well ENR+CD organoid differentiation; assay type: cell-based, mouse; conditions: primary screen; for Z.LYZ.NS: standard z score
Description: (§1) High-throughput screening.

[2] = system: ENR+CD organoids (ISC to Paneth cell differentiation); experiment: Primary screen: CCh-stimulated lysozyme secretion LYZ.S, 2.5-D 384-well ENR+CD organoid differentiation; assay type: cell-based, mouse; conditions: primary screen
Description: as §1

ENR+CD organoids = experiment: Primary screen: ATP (CellTiter-Glo 3D, CTG) cell number/viability, 2.5-D 384-well ENR+CD organoids; conditions: for Dose.FC.CTG / Dose.FC.CTG (log2 fold change) / Z.CTG (standard z score) / Z.CTG: primary screen; for Z.CTG: standard z score;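 as to all read-outs here: compounds given at plating and again on day 3 over a 6-day differentiation from ENR+CV stem-cell-enriched precursors, ATP measured on day 6, plate median as control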
[3] = dose 0.08 uM, FC vs plate median
[4] = dose 0.40 uM, FC vs plate median
[5] = dose 2.00 uM, FC vs plate median
[6] = dose 10.00 uM, FC vs plate median

In the case of CC(C)(C#N)c1cc(Cn2cncn2)cc(C(C)(C)C#N)c1 [Anastrozole], the Dose.FC.LYZ.NS ([1]; dose 0.08 uM) is reported as 0.035 log2 fold change, the “Z.LYZ.NS (standard z score)” value ([1]; dose 0.08 uM) is reported as 0.305 and the Dose.FC.LYZ.NS ([1]; dose 0.40 uM) is reported as 0.106 log2 fold change. For the same compound, the “Z.LYZ.NS (standard z score)” value ([1]; dose 0.40 uM) was 0.924, the Dose.FC.LYZ.NS ([1]; dose 2.00 uM) was −0.003 log2 fold change and the “Z.LYZ.NS (standard z score)” value ([1]; dose 2.00 uM) was −0.026. For the same compound, the Dose.FC.LYZ.NS ([1]; dose 10.00 uM) was −0.067 log2 fold change, the “Z.LYZ.NS (standard z score)” value ([1]; dose 10.00 uM) was −0.580 and the Dose.FC.LYZ.S ([2]; dose 0.08 uM) was 0.045 log2 fold change. For the same compound, the Dose.FC.LYZ.S ([2]; dose 0.40 uM) was 0.100 log2 fold change, the Dose.FC.LYZ.S ([2]; dose 2.00 uM) was −0.008 log2 fold change and the Dose.FC.LYZ.S ([2]; dose 10.00 uM) was −0.081 log2 fold change. It also gave a Dose.FC.CTG (ENR+CD organoids; dose 0.08 uM) of −0.117 log2 fold change, a Dose.FC.CTG (ENR+CD organoids; dose 0.40 uM) of 0.024 log2 fold change and a Dose.FC.CTG (ENR+CD organoids; dose 2.00 uM) of −0.058 log2 fold change. It also gave a Dose.FC.CTG (ENR+CD organoids; dose 10.00 uM) of −0.499 log2 fold change.

O=C(c1cn(Cc2cncn2Cc2ccc(Br)cc2)cc1-c1cccc2ccccc12)N1CCOCC1 [LB42708] was tested, and the “Dose.FC.LYZ.NS (log2 fold change)” value ([1]; dose 0.08 uM) was −0.116, the “Z.LYZ.NS (standard z score)” value ([1]; dose 0.08 uM) was −1.010 and the “Dose.FC.LYZ.NS (log2 fold change)” value ([1]; dose 0.40 uM) was −0.140. For the same compound, the “Z.LYZ.NS (standard z score)” value ([1]; dose 0.40 uM) was −1.221, the “Dose.FC.LYZ.NS (log2 fold change)” value ([1]; dose 2.00 uM) was −0.176 and the “Z.LYZ.NS (standard z score)” value ([1]; dose 2.00 uM) was −1.531. For the same compound, the “Dose.FC.LYZ.NS (log2 fold change)” value ([1]; dose 10.00 uM) was −0.182, the “Z.LYZ.NS (standard z score)” value ([1]; dose 10.00 uM) was −1.587 and the “Dose.FC.LYZ.S (log2 fold change)” value ([2]; dose 0.08 uM) was −0.089. For the same compound, the “Dose.FC.LYZ.S (log2 fold change)” value ([2]; dose 0.40 uM) was −0.144, the “Dose.FC.LYZ.S (log2 fold change)” value ([2]; dose 2.00 uM) was −0.238 and the “Dose.FC.LYZ.S (log2 fold change)” value ([2]; dose 10.00 uM) was −0.233. The “Dose.FC.CTG (log2 fold change)” value (ENR+CD organoids; dose 0.08 uM) was −0.072, the “Z.CTG (standard z score)” value (ENR+CD organoids; dose 0.08 uM) was −0.172 and the “Dose.FC.CTG (log2 fold change)” value (ENR+CD organoids; dose 0.40 uM) was −0.342. For the same compound, the “Z.CTG (standard z score)” value (ENR+CD organoids; dose 0.40 uM) was −0.817, the “Dose.FC.CTG (log2 fold change)” value (ENR+CD organoids; dose 2.00 uM) was −0.116 and the “Z.CTG (standard z score)” value (ENR+CD organoids; dose 2.00 uM) was −0.277. The “Dose.FC.CTG (log2 fold change)” value (ENR+CD organoids; dose 10.00 uM) was −0.706 and the “Z.CTG (standard z score)” value (ENR+CD organoids; dose 10.00 uM) was −1.685.

For CC(=O)O[C@H]1C[C@@H]2CC[C@@H]3[C@H](CC[C@@]4(C)[C@H]3C[C@H]([N+]3(C)CCCCC3)[C@@H]4OC(C)=O)[C@@]2(C)C[C@@H]1[N+]1(C)CCCCC1.[Br-].[Br-] [Pancuronium dibromide], the Z.LYZ.NS ([1]; dose 0.08 uM) was 1.118, the Z.LYZ.NS ([1]; dose 0.40 uM) was 0.406 and the Z.LYZ.NS ([1]; dose 2.00 uM) was 0.806. For the same compound, the Z.LYZ.NS ([1]; dose 10.00 uM) was 0.302, the Dose.FC.LYZ.NS [1, 3] was 0.128 log2 fold change and the Dose.FC.LYZ.NS [1, 4] was 0.047 log2 fold change. The Dose.FC.LYZ.NS [1, 5] was 0.093 log2 fold change, the Dose.FC.LYZ.NS [1, 6] was 0.035 log2 fold change and the Dose.FC.LYZ.S [2, 3] was 0.213 log2 fold change. It also gave a Dose.FC.LYZ.S [2, 4] of 0.094 log2 fold change, a Dose.FC.LYZ.S [2, 5] of 0.099 log2 fold change and a Dose.FC.LYZ.S [2, 6] of 0.004 log2 fold change. It also gave a Z.CTG (ENR+CD organoids; dose 0.08 uM) of 0.519, a Z.CTG (ENR+CD organoids; dose 0.40 uM) of 0.541 and a Z.CTG (ENR+CD organoids; dose 2.00 uM) of −0.029. It also gave a Z.CTG (ENR+CD organoids; dose 10.00 uM) of 0.148, a Dose.FC.CTG (ENR+CD organoids; [3]) of 0.217 log2 fold change and a Dose.FC.CTG (ENR+CD organoids; [4]) of 0.226 log2 fold change. The Dose.FC.CTG (ENR+CD organoids; [5]) was −0.012 log2 fold change and the Dose.FC.CTG (ENR+CD organoids; [6]) was 0.062 log2 fold change.

With CC(C)C[C@@H](C(=O)N[C@H](C(=O)OC1CCCC1)c1ccccc1)[C@H](O)C(=O)NO [Tosedostat (CHR2797)] the Dose.FC.LYZ.NS ([1]; dose 0.08 uM) was −0.002 log2 fold change, the “Z.LYZ.NS (standard z score)” value ([1]; dose 0.08 uM) was −0.022 and the Dose.FC.LYZ.NS ([1]; dose 0.40 uM) was −0.106 log2 fold change. The “Z.LYZ.NS (standard z score)” value ([1]; dose 0.40 uM) was −0.925, the Dose.FC.LYZ.NS ([1]; dose 2.00 uM) was −0.050 log2 fold change and the “Z.LYZ.NS (standard z score)” value ([1]; dose 2.00 uM) was −0.432. For the same compound, the Dose.FC.LYZ.NS ([1]; dose 10.00 uM) was −0.172 log2 fold change, the “Z.LYZ.NS (standard z score)” value ([1]; dose 10.00 uM) was −1.499 and the Dose.FC.LYZ.S ([2]; dose 0.08 uM) was −0.027 log2 fold change. It also gave a Dose.FC.LYZ.S ([2]; dose 0.40 uM) of −0.134 log2 fold change, a Dose.FC.LYZ.S ([2]; dose 2.00 uM) of −0.128 log2 fold change and a Dose.FC.LYZ.S ([2]; dose 10.00 uM) of −0.276 log2 fold change. For the same compound, the SSMD.CTG (ENR+CD organoids; Table 5A primary screen, strictly standardized mean difference, four lines per treatment = four doses, dose not given) was −0.311, the Dose.FC.CTG (ENR+CD organoids; dose 0.08 uM) was −0.097 log2 fold change and the “Z.CTG (standard z score)” value (ENR+CD organoids; dose 0.08 uM) was −0.232. The Dose.FC.CTG (ENR+CD organoids; dose 0.40 uM) was 0.051 log2 fold change, the “Z.CTG (standard z score)” value (ENR+CD organoids; dose 0.40 uM) was 0.123 and the Dose.FC.CTG (ENR+CD organoids; dose 2.00 uM) was −0.201 log2 fold change. For the same compound, the “Z.CTG (standard z score)” value (ENR+CD organoids; dose 2.00 uM) was −0.480, the Dose.FC.CTG (ENR+CD organoids; dose 10.00 uM) was −0.468 log2 fold change and the “Z.CTG (standard z score)” value (ENR+CD organoids; dose 10.00 uM) was −1.117.

With C[C@H](NC(=O)Cc1cc(F)cc(F)c1)C(=O)N[C@@H]1C(=O)N(C)c2ccccc2-c2ccccc21 [YO-01027] the Dose.FC.LYZ.NS ([1]; dose 0.08 uM) was 0.051 log2 fold change, the “Z.LYZ.NS (standard z score)” value ([1]; dose 0.08 uM) was 0.443 and the Dose.FC.LYZ.NS ([1]; dose 0.40 uM) was 0.085 log2 fold change. The “Z.LYZ.NS (standard z score)” value ([1]; dose 0.40 uM) was 0.739, the Dose.FC.LYZ.NS ([1]; dose 2.00 uM) was −0.080 log2 fold change and the “Z.LYZ.NS (standard z score)” value ([1]; dose 2.00 uM) was −0.699. The Dose.FC.LYZ.NS ([1]; dose 10.00 uM) was −0.157 log2 fold change, the “Z.LYZ.NS (standard z score)” value ([1]; dose 10.00 uM) was −1.369 and the Dose.FC.LYZ.S ([2]; dose 0.08 uM) was 0.105 log2 fold change. For the same compound, the Dose.FC.LYZ.S ([2]; dose 0.40 uM) was −0.058 log2 fold change, the Dose.FC.LYZ.S ([2]; dose 2.00 uM) was −0.020 log2 fold change and the Dose.FC.LYZ.S ([2]; dose 10.00 uM) was −0.184 log2 fold change. For the same compound, the Dose.FC.CTG (ENR+CD organoids; dose 0.08 uM) was 0.221 log2 fold change, the “Z.CTG (standard z score)” value (ENR+CD organoids; dose 0.08 uM) was 0.528 and the Dose.FC.CTG (ENR+CD organoids; dose 0.40 uM) was −0.475 log2 fold change. The “Z.CTG (standard z score)” value (ENR+CD organoids; dose 0.40 uM) was −1.135, the Dose.FC.CTG (ENR+CD organoids; dose 2.00 uM) was −0.571 log2 fold change and the “Z.CTG (standard z score)” value (ENR+CD organoids; dose 2.00 uM) was −1.363. The Dose.FC.CTG (ENR+CD organoids; dose 10.00 uM) was −1.032 log2 fold change and the “Z.CTG (standard z score)” value (ENR+CD organoids; dose 10.00 uM) was −2.464.
